Data on 5 compounds can be found in ChEMBL document CHEMBL5465560, “Selectivity Literature for EUbOPEN Chemogenomic Library” (2024).

For assay [1], the target named is Dual specificity protein kinase CLK2 (Homo sapiens, UniProt P49760). Briefly: Selectivity interaction (SelectScreen profiling (Invitrogen)) EUB0000607a CLK2. As to conditions: at 2 µM.
The test system of assay [2] is Tyrosine-protein kinase ABL1 (Homo sapiens), P00519 [Q252H]. To be noted: at 10 µM.
The target of assay [3] is T1, Serine/threonine-protein kinase TAO3 (Homo sapiens) (UniProt Q9H2K8).
T1 sequence (whole entry): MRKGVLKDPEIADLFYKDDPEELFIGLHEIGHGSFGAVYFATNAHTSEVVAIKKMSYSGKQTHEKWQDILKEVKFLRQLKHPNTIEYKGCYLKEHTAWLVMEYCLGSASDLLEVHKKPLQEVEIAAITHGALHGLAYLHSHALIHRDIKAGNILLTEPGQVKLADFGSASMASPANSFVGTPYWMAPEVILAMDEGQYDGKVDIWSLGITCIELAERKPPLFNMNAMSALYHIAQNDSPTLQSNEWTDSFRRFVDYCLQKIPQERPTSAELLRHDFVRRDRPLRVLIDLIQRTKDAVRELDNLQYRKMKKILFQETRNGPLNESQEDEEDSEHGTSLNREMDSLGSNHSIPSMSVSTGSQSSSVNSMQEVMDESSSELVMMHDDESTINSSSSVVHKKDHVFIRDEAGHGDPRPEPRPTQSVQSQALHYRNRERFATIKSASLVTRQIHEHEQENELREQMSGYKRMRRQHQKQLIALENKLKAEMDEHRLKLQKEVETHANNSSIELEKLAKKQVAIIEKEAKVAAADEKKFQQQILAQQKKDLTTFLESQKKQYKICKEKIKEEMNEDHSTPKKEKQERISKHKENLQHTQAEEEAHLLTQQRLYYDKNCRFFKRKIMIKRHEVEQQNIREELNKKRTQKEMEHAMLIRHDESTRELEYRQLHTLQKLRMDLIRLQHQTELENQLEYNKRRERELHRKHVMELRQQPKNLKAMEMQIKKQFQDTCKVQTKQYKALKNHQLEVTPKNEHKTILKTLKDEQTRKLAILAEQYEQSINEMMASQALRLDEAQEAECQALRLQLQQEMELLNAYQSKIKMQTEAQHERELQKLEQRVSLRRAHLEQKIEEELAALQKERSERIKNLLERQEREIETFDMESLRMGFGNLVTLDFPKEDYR
As to conditions: at 10 µM.

For assay [4], the target named is T2, Tyrosine-protein kinase receptor TYRO3 (Homo sapiens) (UniProt Q06418).
T2 sequence (whole entry): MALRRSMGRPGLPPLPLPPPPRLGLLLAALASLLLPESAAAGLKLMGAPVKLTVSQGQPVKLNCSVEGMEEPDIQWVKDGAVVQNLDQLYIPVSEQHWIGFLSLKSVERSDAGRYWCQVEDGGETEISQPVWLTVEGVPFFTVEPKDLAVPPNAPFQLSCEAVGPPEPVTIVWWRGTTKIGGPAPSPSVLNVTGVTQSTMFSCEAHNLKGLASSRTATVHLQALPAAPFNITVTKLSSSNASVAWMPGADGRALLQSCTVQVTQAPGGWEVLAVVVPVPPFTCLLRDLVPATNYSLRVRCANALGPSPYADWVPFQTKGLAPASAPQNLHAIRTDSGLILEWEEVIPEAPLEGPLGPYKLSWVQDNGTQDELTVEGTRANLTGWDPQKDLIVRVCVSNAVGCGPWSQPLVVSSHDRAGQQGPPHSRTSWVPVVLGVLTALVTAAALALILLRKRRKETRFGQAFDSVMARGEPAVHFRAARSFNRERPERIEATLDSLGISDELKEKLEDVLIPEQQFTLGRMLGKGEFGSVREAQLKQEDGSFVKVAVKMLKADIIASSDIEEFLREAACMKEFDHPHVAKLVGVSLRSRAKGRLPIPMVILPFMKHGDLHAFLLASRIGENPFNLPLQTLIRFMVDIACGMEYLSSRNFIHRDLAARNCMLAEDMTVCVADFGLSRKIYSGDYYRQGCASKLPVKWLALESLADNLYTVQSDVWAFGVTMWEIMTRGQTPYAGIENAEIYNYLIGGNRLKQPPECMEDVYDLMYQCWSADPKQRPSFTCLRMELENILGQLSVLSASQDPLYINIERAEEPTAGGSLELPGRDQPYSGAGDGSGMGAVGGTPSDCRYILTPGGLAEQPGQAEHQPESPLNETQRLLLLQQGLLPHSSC
To be noted: at 10 µM.

The target in assay [5] is Tyrosine-protein kinase Fer (Homo sapiens) (UniProt P16591). Kind of assay: Selectivity interaction (KinomeScan (DiscoverX)) EUB0000666a FER. To be noted: at 10 µM.
Assay [6] concerns the target T3, Serine/threonine-protein kinase D3 (Homo sapiens) (UniProt O94806).
T3 sequence (whole entry): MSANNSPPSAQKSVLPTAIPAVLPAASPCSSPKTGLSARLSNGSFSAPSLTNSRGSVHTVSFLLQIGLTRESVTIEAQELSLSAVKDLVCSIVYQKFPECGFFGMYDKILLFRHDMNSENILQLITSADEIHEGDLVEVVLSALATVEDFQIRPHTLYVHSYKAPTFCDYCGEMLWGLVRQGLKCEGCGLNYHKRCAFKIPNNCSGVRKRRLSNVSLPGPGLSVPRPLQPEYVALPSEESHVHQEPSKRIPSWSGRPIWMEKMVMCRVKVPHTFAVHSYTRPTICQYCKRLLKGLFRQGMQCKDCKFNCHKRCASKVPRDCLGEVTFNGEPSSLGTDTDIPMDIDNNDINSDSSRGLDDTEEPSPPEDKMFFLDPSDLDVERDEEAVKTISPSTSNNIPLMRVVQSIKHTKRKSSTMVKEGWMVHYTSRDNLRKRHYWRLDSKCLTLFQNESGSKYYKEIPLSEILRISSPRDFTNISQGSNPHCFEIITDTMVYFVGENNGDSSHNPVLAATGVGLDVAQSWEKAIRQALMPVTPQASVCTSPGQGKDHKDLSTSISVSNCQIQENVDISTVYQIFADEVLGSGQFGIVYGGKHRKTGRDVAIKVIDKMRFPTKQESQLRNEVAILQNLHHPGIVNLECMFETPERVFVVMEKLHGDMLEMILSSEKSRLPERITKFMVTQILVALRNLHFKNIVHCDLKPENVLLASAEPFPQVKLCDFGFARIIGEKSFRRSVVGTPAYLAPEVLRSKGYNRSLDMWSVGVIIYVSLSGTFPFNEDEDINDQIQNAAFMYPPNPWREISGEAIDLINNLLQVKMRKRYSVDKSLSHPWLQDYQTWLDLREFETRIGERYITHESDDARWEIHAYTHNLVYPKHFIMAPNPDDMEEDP
Briefly: Selectivity interaction (KinomeScan (DiscoverX)) EUB0000666a PRKD3. To be noted: at 10 µM.

Assay [7] deals with Cyclin-dependent kinase 16 (Homo sapiens) (UniProt Q00536). Briefly: Selectivity interaction (KinomeScan (DiscoverX)) EUB0001079a CDK16. As to conditions: at 1 µM.
In assay [8] the target is Cyclin-dependent kinase 2 (Homo sapiens, UniProt P24941). Kind of assay: Selectivity interaction (KinomeScan (DiscoverX)) EUB0000618a CDK2. As to conditions: at 10 µM.

Chain of Tyrosine-protein kinase Fer (Homo sapiens) (P16591 whole entry, looked up): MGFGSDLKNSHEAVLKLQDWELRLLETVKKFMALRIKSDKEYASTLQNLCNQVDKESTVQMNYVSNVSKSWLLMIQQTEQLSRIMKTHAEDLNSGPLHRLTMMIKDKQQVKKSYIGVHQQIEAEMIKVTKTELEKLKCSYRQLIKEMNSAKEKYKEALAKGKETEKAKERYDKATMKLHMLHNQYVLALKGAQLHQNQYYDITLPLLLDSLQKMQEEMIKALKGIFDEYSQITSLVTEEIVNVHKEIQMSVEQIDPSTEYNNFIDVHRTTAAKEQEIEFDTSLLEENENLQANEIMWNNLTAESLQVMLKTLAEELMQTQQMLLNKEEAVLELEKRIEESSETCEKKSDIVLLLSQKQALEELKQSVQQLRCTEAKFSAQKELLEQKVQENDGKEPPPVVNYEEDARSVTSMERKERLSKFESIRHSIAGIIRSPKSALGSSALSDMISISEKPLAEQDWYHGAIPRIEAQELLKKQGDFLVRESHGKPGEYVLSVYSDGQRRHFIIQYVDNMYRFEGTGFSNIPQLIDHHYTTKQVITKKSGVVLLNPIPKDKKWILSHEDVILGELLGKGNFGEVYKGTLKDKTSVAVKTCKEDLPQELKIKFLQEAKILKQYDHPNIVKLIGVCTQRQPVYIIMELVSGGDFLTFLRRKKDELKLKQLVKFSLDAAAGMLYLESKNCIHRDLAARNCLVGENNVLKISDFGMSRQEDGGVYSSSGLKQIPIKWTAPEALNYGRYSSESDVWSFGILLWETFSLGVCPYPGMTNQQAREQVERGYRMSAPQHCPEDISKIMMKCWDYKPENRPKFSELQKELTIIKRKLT
Chain of Dual specificity protein kinase CLK2 (P49760 whole entry, looked up): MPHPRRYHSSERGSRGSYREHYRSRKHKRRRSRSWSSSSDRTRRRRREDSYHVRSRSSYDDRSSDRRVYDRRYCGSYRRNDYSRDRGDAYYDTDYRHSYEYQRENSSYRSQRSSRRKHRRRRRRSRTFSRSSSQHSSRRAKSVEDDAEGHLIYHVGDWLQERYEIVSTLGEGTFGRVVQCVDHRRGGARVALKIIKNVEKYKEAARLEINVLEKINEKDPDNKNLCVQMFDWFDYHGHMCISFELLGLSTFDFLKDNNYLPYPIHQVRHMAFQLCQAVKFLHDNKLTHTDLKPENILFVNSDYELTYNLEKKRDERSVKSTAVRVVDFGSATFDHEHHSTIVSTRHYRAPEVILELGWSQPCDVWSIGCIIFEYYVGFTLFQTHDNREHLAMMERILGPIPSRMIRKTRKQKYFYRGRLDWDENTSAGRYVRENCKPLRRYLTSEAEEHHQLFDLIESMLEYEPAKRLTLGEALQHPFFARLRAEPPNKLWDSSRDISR
Chain of Cyclin-dependent kinase 16 (Homo sapiens) (Q00536 whole entry): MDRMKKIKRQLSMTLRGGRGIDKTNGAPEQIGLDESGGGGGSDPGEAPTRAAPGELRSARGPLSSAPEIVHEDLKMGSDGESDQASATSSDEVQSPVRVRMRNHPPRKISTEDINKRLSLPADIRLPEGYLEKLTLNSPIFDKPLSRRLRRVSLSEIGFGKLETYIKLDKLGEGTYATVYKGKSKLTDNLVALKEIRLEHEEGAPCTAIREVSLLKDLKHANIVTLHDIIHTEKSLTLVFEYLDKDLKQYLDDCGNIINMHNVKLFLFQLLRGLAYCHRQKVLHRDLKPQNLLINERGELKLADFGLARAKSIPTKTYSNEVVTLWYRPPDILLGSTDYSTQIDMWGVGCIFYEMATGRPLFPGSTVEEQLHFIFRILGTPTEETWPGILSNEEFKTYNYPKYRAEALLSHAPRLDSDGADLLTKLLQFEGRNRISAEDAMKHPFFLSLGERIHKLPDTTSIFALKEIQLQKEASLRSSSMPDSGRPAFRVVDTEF

For the compound `CNC(=O)Nc1ccc(-c2nc(N3CC4CCC(C3)O4)c3cnn(C4CCC5(CC4)OCCO5)c3n2)cc1`, the % of inhibition in assay [1] worked out at 0%.

Turning to `Cc1cc([C@@H](C)Nc2ccccc2C(=O)O)c2nc(N3CCOCC3)cc(=O)n2c1` [AZD-6482], the % of control in assay [2], in assay [3] and in assay [4] was 100% each time.

Turning to `O=C(NOC[C@H](O)CO)c1ccc(F)c(F)c1Nc1ccc(I)cc1F`, the % of control in assay [5] was 100%; in assay [6], 70%.

In turn, `Nc1cnc(N2CCc3cc(S(=O)(=O)Nc4c(F)cc(Cl)cc4F)cc(N4CCCC4=O)c32)nc1` [TP-020n] gave a % of control in assay [7] of 98%.

For `O[C@H]1CC[C@H](Nc2ncc3nc(Nc4c(F)cc(F)cc4F)n([C@H]4CCOC4)c3n2)CC1`, the % of control in assay [8] was 100%.
